Test results taken from ChEMBL document CHEMBL5465560, “Selectivity Literature for EUbOPEN Chemogenomic Library” (2024).
Values belong to the compound of their own block, whether it stands above or below them.

Assays:
[1] = biological target: T1, Serine/threonine-protein kinase Nek2 (Homo sapiens) (UniProt P51955); test: Selectivity interaction (Ambit KINOMEscan and KiNATiv profiling in Jurkat cells) EUB0000090b NEK2; type: cell-based; details: at 1 µM
T1 sequence (whole entry): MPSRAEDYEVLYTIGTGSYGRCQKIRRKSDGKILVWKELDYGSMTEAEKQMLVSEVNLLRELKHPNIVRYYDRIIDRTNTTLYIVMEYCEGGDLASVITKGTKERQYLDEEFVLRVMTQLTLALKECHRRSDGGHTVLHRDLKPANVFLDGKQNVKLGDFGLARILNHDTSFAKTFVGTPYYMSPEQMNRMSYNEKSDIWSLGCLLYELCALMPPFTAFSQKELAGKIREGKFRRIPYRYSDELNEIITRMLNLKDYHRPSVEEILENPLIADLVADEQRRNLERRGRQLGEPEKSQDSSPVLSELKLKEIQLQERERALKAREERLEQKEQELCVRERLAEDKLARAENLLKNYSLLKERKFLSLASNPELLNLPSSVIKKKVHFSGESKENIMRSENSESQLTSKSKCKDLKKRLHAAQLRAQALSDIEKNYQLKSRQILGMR

[2] = biological target: 5'-AMP-activated protein kinase catalytic subunit alpha-1 (Homo sapiens, UniProt Q13131); test: Selectivity interaction (Kinase panel (Invitrogen)) EUB0000639a PRKAA1; details: at 200 nM
[3] = biological target: Tyrosine-protein kinase BTK (Homo sapiens, UniProt Q06187); test: Selectivity interaction (Kinase panel (Z-LYTE Assay)) EUB0001632a BTK; details: at 10 µM
[4] = biological target: Microtubule-associated serine/threonine-protein kinase 1 (Homo sapiens) (UniProt Q9Y2H9); test: Selectivity interaction (KinomeScan (DiscoverX)) EUB0000655a MAST1; details: at 10 µM
[5] = biological target: T2, Mitogen-activated protein kinase kinase kinase 12 (Homo sapiens) (UniProt Q12852); test: Selectivity interaction (KinomeScan (DiscoverX)) EUB0001619a MAP3K12; details: at 1 µM
T2 sequence (whole entry): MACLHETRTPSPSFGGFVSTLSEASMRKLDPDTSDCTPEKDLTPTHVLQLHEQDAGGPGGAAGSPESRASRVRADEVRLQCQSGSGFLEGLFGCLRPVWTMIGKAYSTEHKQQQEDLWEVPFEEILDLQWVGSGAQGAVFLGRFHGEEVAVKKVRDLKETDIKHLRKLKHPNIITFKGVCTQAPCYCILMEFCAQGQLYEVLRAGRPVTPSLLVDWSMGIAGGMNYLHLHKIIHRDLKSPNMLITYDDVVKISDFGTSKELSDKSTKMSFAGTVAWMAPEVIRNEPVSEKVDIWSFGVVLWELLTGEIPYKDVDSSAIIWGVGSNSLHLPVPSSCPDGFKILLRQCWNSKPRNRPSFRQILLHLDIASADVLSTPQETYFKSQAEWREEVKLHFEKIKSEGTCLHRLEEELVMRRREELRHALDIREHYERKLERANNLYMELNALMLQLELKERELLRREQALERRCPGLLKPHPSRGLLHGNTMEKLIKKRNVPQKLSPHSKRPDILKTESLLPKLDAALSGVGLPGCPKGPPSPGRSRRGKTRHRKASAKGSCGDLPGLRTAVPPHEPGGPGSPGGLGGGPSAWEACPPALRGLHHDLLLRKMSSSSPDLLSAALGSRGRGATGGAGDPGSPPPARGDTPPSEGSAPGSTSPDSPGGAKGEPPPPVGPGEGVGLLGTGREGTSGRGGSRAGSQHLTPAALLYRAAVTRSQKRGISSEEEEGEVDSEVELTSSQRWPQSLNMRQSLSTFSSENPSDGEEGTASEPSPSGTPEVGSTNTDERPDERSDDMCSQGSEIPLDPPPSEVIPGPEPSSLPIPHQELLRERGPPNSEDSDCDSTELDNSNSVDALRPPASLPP

[6] = biological target: T3, Serine/threonine-protein kinase TAO2 (Homo sapiens) (UniProt Q9UL54); test: Selectivity interaction (KinomeScan (DiscoverX)) EUB0000607a TAOK2; details: at 10 µM
T3 sequence (whole entry): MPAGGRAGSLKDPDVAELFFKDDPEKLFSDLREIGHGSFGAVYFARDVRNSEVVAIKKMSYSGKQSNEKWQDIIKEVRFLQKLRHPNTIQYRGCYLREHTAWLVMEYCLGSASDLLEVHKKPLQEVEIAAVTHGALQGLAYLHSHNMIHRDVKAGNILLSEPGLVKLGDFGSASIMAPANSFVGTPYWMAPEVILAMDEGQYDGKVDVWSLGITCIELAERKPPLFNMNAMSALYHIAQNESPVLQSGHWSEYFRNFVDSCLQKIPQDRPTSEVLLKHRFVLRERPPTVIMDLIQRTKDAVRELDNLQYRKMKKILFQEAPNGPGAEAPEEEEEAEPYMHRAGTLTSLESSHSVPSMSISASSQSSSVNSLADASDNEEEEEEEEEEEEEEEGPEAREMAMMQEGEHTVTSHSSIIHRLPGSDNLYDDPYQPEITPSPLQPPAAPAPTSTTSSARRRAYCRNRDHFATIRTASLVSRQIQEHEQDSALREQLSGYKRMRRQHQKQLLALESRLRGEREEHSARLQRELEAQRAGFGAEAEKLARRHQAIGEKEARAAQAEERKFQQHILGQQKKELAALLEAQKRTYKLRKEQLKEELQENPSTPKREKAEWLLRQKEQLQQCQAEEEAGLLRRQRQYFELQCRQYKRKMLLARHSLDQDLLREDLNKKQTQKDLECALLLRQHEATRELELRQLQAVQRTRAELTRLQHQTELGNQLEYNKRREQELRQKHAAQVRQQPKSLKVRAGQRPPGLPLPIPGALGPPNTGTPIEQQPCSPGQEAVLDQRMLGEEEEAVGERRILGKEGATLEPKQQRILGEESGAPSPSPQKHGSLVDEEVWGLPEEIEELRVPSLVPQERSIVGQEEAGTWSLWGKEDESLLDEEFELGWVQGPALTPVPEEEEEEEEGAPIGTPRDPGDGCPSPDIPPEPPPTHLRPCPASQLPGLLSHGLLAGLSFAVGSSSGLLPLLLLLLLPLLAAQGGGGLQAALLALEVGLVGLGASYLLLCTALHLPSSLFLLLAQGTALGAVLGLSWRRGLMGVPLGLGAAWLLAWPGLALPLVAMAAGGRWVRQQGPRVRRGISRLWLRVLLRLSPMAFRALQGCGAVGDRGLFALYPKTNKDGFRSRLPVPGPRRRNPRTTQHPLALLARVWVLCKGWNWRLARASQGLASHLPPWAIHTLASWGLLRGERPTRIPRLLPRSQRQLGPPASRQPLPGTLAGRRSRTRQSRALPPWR

Chain of Tyrosine-protein kinase BTK (Q06187 whole entry): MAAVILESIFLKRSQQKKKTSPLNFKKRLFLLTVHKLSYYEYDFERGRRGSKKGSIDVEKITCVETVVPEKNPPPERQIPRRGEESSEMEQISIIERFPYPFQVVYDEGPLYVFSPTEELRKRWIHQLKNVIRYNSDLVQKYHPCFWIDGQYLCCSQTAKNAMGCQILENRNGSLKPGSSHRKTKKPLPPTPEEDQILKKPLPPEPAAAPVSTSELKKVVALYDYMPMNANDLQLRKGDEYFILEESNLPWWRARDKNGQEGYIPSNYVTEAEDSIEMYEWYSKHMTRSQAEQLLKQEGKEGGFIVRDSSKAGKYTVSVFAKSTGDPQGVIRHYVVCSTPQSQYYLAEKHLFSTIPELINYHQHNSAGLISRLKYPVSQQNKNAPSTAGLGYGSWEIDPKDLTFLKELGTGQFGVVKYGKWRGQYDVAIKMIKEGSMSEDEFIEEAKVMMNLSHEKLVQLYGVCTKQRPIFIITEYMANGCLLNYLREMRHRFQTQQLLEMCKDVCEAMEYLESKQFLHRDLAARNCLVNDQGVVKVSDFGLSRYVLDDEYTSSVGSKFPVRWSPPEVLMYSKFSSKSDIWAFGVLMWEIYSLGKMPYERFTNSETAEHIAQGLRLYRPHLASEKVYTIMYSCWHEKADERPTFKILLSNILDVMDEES
Chain of 5'-AMP-activated protein kinase catalytic subunit alpha-1 (Q13131 whole entry, looked up): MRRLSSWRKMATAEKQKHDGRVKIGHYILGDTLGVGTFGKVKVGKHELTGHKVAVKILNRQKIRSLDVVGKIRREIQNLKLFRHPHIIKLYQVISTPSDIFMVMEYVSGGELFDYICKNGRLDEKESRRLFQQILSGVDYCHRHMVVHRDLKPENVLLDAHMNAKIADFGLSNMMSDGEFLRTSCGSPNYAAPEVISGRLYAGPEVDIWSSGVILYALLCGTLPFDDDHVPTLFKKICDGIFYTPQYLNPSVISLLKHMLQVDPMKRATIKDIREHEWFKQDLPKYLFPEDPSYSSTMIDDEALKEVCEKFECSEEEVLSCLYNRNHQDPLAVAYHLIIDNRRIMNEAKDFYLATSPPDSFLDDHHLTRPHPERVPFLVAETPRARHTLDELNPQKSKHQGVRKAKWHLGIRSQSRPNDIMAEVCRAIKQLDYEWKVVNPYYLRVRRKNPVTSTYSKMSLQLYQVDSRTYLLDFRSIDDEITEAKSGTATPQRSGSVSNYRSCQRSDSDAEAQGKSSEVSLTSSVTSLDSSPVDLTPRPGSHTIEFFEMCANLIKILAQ
Chain of Microtubule-associated serine/threonine-protein kinase 1 (Homo sapiens) (Q9Y2H9 whole entry, looked up): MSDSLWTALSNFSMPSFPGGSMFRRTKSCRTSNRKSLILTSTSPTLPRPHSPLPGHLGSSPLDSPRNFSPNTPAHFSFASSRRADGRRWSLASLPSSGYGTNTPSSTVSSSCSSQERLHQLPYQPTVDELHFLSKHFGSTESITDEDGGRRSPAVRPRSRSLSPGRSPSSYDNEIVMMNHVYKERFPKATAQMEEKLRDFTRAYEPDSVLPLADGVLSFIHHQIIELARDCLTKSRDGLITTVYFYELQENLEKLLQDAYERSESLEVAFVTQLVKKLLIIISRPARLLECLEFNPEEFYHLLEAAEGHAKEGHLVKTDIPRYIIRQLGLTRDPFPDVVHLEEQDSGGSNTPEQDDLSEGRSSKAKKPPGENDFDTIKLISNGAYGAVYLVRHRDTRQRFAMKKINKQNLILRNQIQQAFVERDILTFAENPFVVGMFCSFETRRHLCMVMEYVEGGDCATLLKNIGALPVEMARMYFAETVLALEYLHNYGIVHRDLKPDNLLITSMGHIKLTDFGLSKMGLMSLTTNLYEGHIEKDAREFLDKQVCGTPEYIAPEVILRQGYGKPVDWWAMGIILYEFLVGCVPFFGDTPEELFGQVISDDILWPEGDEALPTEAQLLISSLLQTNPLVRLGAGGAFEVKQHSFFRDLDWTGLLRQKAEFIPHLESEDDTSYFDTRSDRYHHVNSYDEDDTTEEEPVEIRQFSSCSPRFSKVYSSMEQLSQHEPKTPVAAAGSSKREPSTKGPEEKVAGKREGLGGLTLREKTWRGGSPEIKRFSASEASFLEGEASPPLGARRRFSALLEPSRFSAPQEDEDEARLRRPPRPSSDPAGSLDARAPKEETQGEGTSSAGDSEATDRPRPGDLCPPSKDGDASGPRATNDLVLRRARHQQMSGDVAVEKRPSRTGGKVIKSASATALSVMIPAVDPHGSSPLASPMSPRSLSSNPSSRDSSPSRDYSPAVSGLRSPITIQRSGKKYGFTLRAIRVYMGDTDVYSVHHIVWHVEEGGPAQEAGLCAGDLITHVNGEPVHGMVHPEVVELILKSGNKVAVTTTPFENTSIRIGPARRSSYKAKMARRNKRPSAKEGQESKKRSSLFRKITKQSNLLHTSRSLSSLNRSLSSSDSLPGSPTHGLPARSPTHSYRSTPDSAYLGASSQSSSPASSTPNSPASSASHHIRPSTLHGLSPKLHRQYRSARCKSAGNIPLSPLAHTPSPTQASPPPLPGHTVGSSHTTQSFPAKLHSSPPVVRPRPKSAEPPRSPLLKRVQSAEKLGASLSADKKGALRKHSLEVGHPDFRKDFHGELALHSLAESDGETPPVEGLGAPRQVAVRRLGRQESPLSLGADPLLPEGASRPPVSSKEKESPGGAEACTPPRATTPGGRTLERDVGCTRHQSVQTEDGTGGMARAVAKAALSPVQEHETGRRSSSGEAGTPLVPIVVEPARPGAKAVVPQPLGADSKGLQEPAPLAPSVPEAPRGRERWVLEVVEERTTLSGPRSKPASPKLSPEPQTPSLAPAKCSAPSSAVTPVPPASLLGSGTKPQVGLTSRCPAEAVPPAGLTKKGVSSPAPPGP

Structure (SMILES): CN(C)C/C=C/C(=O)Nc1ccc(C(=O)N2CCCC(Nc3ncc(Cl)c(-c4c[nH]c5ccccc45)n3)C2)cc1 (stereo unspecified)
% of control [1]: 97%

% of inhibition [2]: 11%
Structure (SMILES): CC[C@@H]1[C@H](F)C(=O)N[C@@H]1COc1nccc2cc(C(N)=O)c(OC)cc12 [ZIMLOVISERTIB]

% of control [3]: -7.51%
Structure (SMILES): Cn1cc(-n2cnc3c(NCc4nc5cc(Cl)c(Cl)cc5[nH]4)nc(N4CCOCC4)nc32)cn1

Structure (SMILES): CN(C)CCOc1ccc(-c2nc(-c3ccncc3)c(-c3ccc4c(c3)CC/C4=N\O)[nH]2)cc1
% of control [4]: 100%

Structure (SMILES): N#Cc1cccc(-c2c[nH]c3ncnc(N4CCOCC4)c23)c1
% of control [5]: 96%

Structure (SMILES): CNC(=O)Nc1ccc(-c2nc(N3CC4CCC(C3)O4)c3cnn(C4CCC5(CC4)OCCO5)c3n2)cc1
% of control [6]: 100%
